# Data reported in patent US20090030066A1, “SMALL MOLECULES FOR THE PROTECTION OF PANCREATIC CELLS” (priority 2007, published 2009).
# Tests used:
# L-arginine-treated rats = experiment: L-arginine-treated rat model of necrotic pancreatitis; type: in vivo
# Source text: L-arginine-treated rats are frequently used experimental tools to model necrotic pancreatitis [Krajewski, E., Krajewski, J., Spodnik, J. H., Figarski, A. and Kunasik-Juraniec, J. (2005) Changes in the morphology of the acinar cells of the rat pancreas in the oedematous and nectoric types of experimental acute pancreatitis. Folia Morphol. 64, 292-303]. L-arginine is a precursor of NO which primarily destroys the exocrine pancreas with subsequent damage of insulin producing islet cells. Just like pancreatitis is often associated with elevated blood glucose level in human patients, extensive damage of pancreas in the L-arginine-treated animal model also results in damaged function of β-cells as indicated by higher blood glucose levels. In this example, the L-arginine-treated rat model was employed to see if CCompound1 could also prevent or reduce deterioration of β-cell function and the damage of the exocrine pancreas.
# Male Wistar rats weighing 220-250 g were divided into four groups, each group consisting of 6 animals. To ensure standard conditions animals were starved for 16 hours before the start of the experiment. CCompound1 was first injected 24 hours prior to L-arginine injection, followed by similar daily injections for 5 consecutive days. In the first group, rats remained untreated. On day 0, animals in groups 2-4 were injected 2×2.5 g/kg L-arginine i.p. at one hour intervals. Animals in group 4 also received daily s.c. injection of 4.5 mg/kg of CCompound1 between days −1 and 5. To verify development of acute pancreatitis, 24 hours after L-arginine injections rats in group 2 were anesthetized with 45 mg/kg pentobarbital i.p. and exsanguinated through the abdominal aorta. On day 0, 2, 4 and 6 blood sugar values of the experimental animals were measured after fasting for 8 hours with the C-test; blood samples were taken from the tail. Edema of the pancreatic tissue was assessed by the pancreatic weight/body weight ratio. The animals in the remaining groups were sacrificed on day 7.
# For histological examinations, a portion of the head of the pancreas was fixed in 4% neutral formaldehyde solution and embedded in paraffin. Tissue slices were stained with hematoxylin and eosin and examined by light microscopy. Slices were coded and examined blind by a pathologist for the grading of histological alterations. The extent and intensity of pancreatic edema, leukocyte infiltration, acinar vacuolization, hyperemia and tubular transformation were described with scores ranging from 0 to 3. The total histological damage was calculated by adding the scores for the various below listed parameters together.
# Hyperemia; defined as the amount of red blood cells in the vessels.
# Edema; defined as the widening of interstitial space.
# Vacuolization; defined as the formation of vacuoles in the cytoplasm of acinar cells. Vacuolization results from the fusion of zymogene granules and lysosomes.
# Inflammation; defined and quantified by the infiltration of the tissue with mononuclear inflammatory cells (lymphocytes, plasma cells, and mast cells).
# Necrosis; defined as the measure of the extent of the destruction of normal pancreatic tissue structure.
# Tubular transformation; defined as desquamation of acinar cell apical cytoplasm and release of cytoplasm segments into the acinar lumen leading to formation of duct-like tubular complexes. (Elsässer H. P., Adler G and Kern H. F. (1986) Time course and cellular source of pancreatic regeneration following acute pancreatitis in the rat. Pancreas 1 (5) 421-9).
# Total histological damage (total damage); defined and calculated by combining the histological scores of the above mentioned parameters (except vacuolization). This value is the generally accepted best representation of the severity of pancreatitis in the art. […]
# [1] = test system: AR42J rat pancreatic tumor cell line; experiment: MTT proliferation of AR42J pancreatic tumor cells; type: cell-based; details: 96 h
# Source text: In the Examples below, an MTT assay was used to determine the relative number of viable cells after treatments. This calorimetric assay is based on the ability of living cells, but not dead cells, to reduce 3-(4,5-dimethyl thiazol-2-yl)-2,5-diphenyltetrazolium bromide. [Carmichael, J, De Graff, W. G., Gazdar, A. F., Minna, J. D. and Mitchell, J. B. (1987) Evaluation of tetrazolium-based semiautomated calorimetric assay: Assessment of chemosensitivity testing. Cancer Res. 47, 936-942], which is hereby incorporated by reference. For this assay, cells were plated in 96-well plates, and the MTT assay was performed as described in the above article both in untreated and treated cell cultures. The MTT assay also was performed at the time when the treatment was started to allow for assessment of the proliferation and survival rates in the control and treated cell cultures. In the MTT assay, higher values mean proportionally higher numbers of viable cells.
# The AR42J rat pancreatic tumor cell line, purchased from ATTC (catalog number: CRL-1492), was propagated in modified Ham's medium containing 20% fetal bovine serum. These cells, derived from a transplantable tumor of the exocrine pancreas, contain significant amounts of amylase and other exocrine enzymes and they produce tumors in athymic mice.
# For the experiment, cells were split in 96-well plates at 15,000 cells per well. After 24 hours, the medium was changed for fresh medium (0 hour) and various concentrations of CCompound1 and CCompound3 were added and incubations continued for 96 hours. The MTT assay was used to determine the relative number of viable cells. From the data shown in TABLE 13, in the 2-25 μM concentration range CC compounds had only inhibitory effects on the proliferation of pancreatic cancer cells.
# [2] = L-arginine + compound, pancreas, day 7
structure (smiles),measurement,setting,value
"Cc1c(OCC(O)C[N+](C)(C)C)cc2c(=O)c3ccccc3sc2c1C.[Cl-] (stereo not shown) [CCcompound1, [3-(3,4-Dimethyl-9-oxo-9H-thioxanthen-2-yloxy)-2-hydroxypropyl]trimethyl-ammonium chloride]",effect on L-arginine-stimulated blood glucose,L-arginine-treated rats; 4.5 mg/kg s.c. daily,reduced L-arginine-stimulated blood glucose to control level
same,Blood glucose,"L-arginine-treated rats; L-arginine 2×2.5 g/kg i.p. day 0 + compound 4.5 mg/kg s.c. daily days −1 to 5, fasted 8 h, day 0",6.28 ± 0.31 mM
same,effect on tissue necrosis,L-arginine-treated rats; L-arginine + compound,significant reduction in tissue necrosis
same,Blood glucose,"L-arginine-treated rats; L-arginine + compound 4.5 mg/kg s.c. daily, fasted 8 h, day 2",6.46 ± 0.33 mM
same,Blood glucose,"L-arginine-treated rats; L-arginine + compound 4.5 mg/kg s.c. daily, fasted 8 h, day 4",6.26 ± 0.21 mM
same,Blood glucose,"L-arginine-treated rats; L-arginine + compound 4.5 mg/kg s.c. daily, fasted 8 h, day 6",6.00 ± 0.49 mM
same,insulin staining score (scale 0 to 3),"L-arginine-treated rats; L-arginine + compound, day 7, immunohistochemistry of pancreas",2.45±0.30
same,Edema histological score (0 to 3),L-arginine-treated rats; [2],1.33 ± 0.21
same,Hyperemia histological score (0 to 3),L-arginine-treated rats; [2],1.17 ± 0.17
same,Inflammation histological score (0 to 3),L-arginine-treated rats; [2],2.00 ± 0.00
same,Necrosis histological score (0 to 3),L-arginine-treated rats; [2],1.25 ± 0.36
same,Total damage (sum of histological scores except vacuolization),L-arginine-treated rats; [2],7.75 ± 0.70
same,Tubular transformation histological score (0 to 3),L-arginine-treated rats; [2],2.00 ± 0.37
same,Vacuolization histological score (0 to 3),L-arginine-treated rats; [2],1.17 ± 0.17
same,protection of endocrine and exocrine pancreatic cells,L-arginine-treated rats; L-arginine-induced necrotic pancreatitis model,partially or fully protected both the endocrine and exocrine pancreatic cells
same,"A540 (MTT, relative number of viable cells)",[1]; 2 μM,1.092 ± 0.083
same,"A540 (MTT, relative number of viable cells)",[1]; 5 μM,0.954 ± 0.080
same,"A540 (MTT, relative number of viable cells)",[1]; 10 μM,0.882 ± 0.062
same,"A540 (MTT, relative number of viable cells)",[1]; 25 μM,0.781 ± 0.090
